Measured values: patent US20090196869A1, “ANTITUMOR COMBINATIONS CONTAINING TAXANE DERIVATIVES” (SANOFI-AVENTIS, priority 2006, published 2009)

What was measured:
[1] = test system: Human breast carcinoma UISO-BCA-1; experiment: Antitumor activity in Human Mammary UISO-BCA-1 xenografted in nude mice (3-arm dose-response); type: in vivo; details: for sensitivity of the UISO-BCA-1 xenograft to the agent: characterisation of the tumor model, monotherapy; for (T-C) days / CR / TFS d121 / log cell kill: acetocyclopropyl taxotere alone, day 17, 21, 25
Description: This efficacy may be quantified, for example, by the log10 cells killed, which is determined according to the following formula: […]
A product is considered to be active if log10 cells killed is greater than or equal to 0.7. A product is considered to be very active if log10 cells killed is greater than 2.8.
The combination, used at its own maximum tolerated dose, in which each of the constituents will be present at a dose generally not exceeding its maximum tolerated dose, will manifest therapeutic synergy when the log10 cells killed is greater than the value of the log10 cells killed of the best constituent when it is administered alone.
(§1) The animals subjected to the experiment, generally mice, are subcutaneously grafted bilaterally with 30 to 60 mg of a tumor fragment on day 0. The animals bearing tumors are mixed before being subjected to the various treatments and controls. In the case of treatment of advanced tumors, tumors are allowed to develop to the desired size, animals having insufficiently developed tumors being eliminated. The selected animals are distributed at random to undergo the treatments and controls. […] The different animal groups are weighed 3 or 4 times a week until the maximum weight loss is reached, and the groups are then weighed at least once a week until the end of the trial.
The tumors are measured 2 or 3 times a week until the tumor reaches approximately 2 g, or until the animal dies if this occurs before the tumor reaches 2 g. The animals are autopsied when sacrificed.
The tumor model used to evaluate each drug combination was selected, in general, on the basis of its responsiveness to each of the agents when used as monotherapy. Using i.v. intermittent schedules, full dose response trials were conducted for each single agent and each combination. In the present case, the selected tumor was a Human breast carcinoma UISO-BCA-1 derived from a malignant pleural effusion. The primary tumor was well-differentiated infiltrating ductal carcinoma of the breast. Radiotherapy post mastectomy was practiced. Three years after, chemotherapy to treat a left supraclavicular mass was done (10 courses with cytoxan, methotrexate, 5-Fu and Tamoxifen). […] This tumor model was established in nude mice from a 2.10^7 cell implant, and maintained by serial sc passage as tumor fragment.

[2] = Toxicity (drug deaths, body weight loss, highest non-toxic dose) in tumor-bearing nude mice; type: in vivo; details: for % bwl at nadir / Drug deaths: acetocyclopropyl taxotere alone, day 17, 21, 25
Description: as §1

[3] = iv 12.4 mg/kg/day (total 37.2 mg/kg)
[4] = iv 20.0 mg/kg/day (total 60.0 mg/kg)
[5] = iv 32.3 mg/kg/day (total 96.9 mg/kg)
[6] = iv 52.1 mg/kg/day (total 156.3 mg/kg)
[7] = single agent, iv day 17, 21, 25

In the case of `O=P1(N(CCCl)CCCl)NCCCO1` (centres unmarked) [cyclophosphamide, reference compound], the “sensitivity of the UISO-BCA-1 xenograft to the agent” value (“sensitivity” below) [1] was “poorly sensitive”.

With `CC(=O)O[C@@]12CO[C@@H]1C[C@H](O)[C@@]1(C)C(=O)[C@H](O)C3=C(C)[C@@H](OC(=O)[C@H](O)[C@@H](NC(=O)OC(C)(C)C)c4ccccc4)C[C@@](O)([C@@H](OC(=O)c4ccccc4)[C@H]21)C3(C)C` [docetaxel, reference compound] the “sensitivity” value [1] was “resistant”.

With `CC(=O)O[C@H]1C(=O)[C@]23C[C@H]2C[C@H]2OC[C@@]2(OC(C)=O)[C@H]3[C@H](OC(=O)c2ccccc2)[C@]2(O)CC(OC(=O)[C@H](O)C(NC(=O)OC(C)(C)C)c3ccccc3)C(C)=C1C2(C)C` (some centres unmarked) [acetocyclopropyl taxotere] the “% bwl at nadir” value [2, 3] was 0.5%, the Drug deaths [2, 3] was 0/8 and the “% bwl at nadir” value [2, 4] was 0.5%. For the same molecule, the Drug deaths [2, 4] was 0/8, the “% bwl at nadir” value [2, 5] was 5.2% and the Drug deaths [2, 5] was 0/8. The “% bwl at nadir” value [2, 6] was 7.2%, the Drug deaths [2, 6] was 2/8 and the highest non-toxic dose [2, 7] was 32.3 mg/kg per injection. For the same molecule, the “highest non-toxic dose, total dose” value [2, 7] was 96.9 mg/kg, the “(T-C) days” value [1, 3] was 1.8 days and the CR [1, 3] was 0/8. The “TFS d121” value [1, 3] was 0/8, the log cell kill [1, 3] was 0.1 and the “(T-C) days” value [1, 4] was 6.0 days. The CR [1, 4] was 0/8, the “TFS d121” value [1, 4] was 0/8 and the log cell kill [1, 4] was 0.4. The “(T-C) days” value [1, 5] was 20.8 days, the CR [1, 5] was 0/8 and the “TFS d121” value [1, 5] was 0/8. The log cell kill [1, 5] was 1.3, the CR ([1]; iv 32.3 mg/kg/day (total 96.9 mg/kg), listed as acetyl cyclopropyl docetaxel) was “no regression” and the “sensitivity” value [1] was “sensitive”.

With `CC[C@]1(O)C[C@H]2CN(CCc3c([nH]c4ccccc34)[C@@](C(=O)OC)(c3cc4c(cc3OC)N(C=O)[C@H]3[C@@](O)(C(=O)OC)[C@H](OC(C)=O)[C@]5(CC)C=CCN6CC[C@]43[C@@H]65)C2)C1` [vincristine, reference compound] the “sensitivity” value [1] was “poorly sensitive”.

With `COc1cccc2c1C(=O)c1c(O)c3c(c(O)c1C2=O)C[C@@](O)(C(=O)CO)C[C@@H]3O[C@H]1C[C@H](N)[C@H](O)[C@H](C)O1` [doxorubicin, reference compound] the “sensitivity” value [1] was “poorly sensitive”.

For `O=c1[nH]cc(F)c(=O)[nH]1` [5-Fluorouracil, reference compound], the “sensitivity” value [1] was “sensitive”.
